Earlier results in patent US5846995A, “Substituted 1, 2, 3, 4-tetrahydro-2-dibenzofuranamines and 2-amino-cyclohepta (6, 7-B) Benzofurans” (priority 1997, dated 1998).

Conditions: background

Compound: CNS(=O)(=O)Cc1ccc2[nH]cc(CCN(C)C)c2c1.O=C(O)CCC(=O)O [Compound I, 3-[2-(dimethylamino)ethyl]-N-methyl-1H-indole-5-methanesulfonamide butane-1,4-dioate (1:1)]
- bioavailability: low bioavailability
